{"source": "paper PMC7093416", "about": "“Selective USP7 inhibition elicits cancer cell killing through a p53-dependent mechanism” (Scientific Reports, 2020)", "key": {"BZW2": {"molecular_target": "T1, BZW2 (Homo sapiens, UniProt Q9Y6E2)", "T1 construct": "endogenous in cells; host or cells: HEK 293AD lysate", "T1 sequence (Q9Y6E2 1-419)": "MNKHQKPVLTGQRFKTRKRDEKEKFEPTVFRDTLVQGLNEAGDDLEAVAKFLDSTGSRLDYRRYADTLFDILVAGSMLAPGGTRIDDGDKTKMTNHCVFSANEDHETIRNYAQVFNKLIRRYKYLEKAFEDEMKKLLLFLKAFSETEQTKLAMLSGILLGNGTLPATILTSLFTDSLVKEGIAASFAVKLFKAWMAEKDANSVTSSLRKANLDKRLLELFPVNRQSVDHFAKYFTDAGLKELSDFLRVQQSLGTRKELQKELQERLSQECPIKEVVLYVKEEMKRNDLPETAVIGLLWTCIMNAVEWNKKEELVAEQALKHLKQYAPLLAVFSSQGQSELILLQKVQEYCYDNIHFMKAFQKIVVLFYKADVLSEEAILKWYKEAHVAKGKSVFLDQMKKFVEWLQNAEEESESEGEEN", "assay": "XL177A-DTB chemoproteomic profiling with XL177A competition, BZW2", "format": "binding", "details": "BZW2 reporter ion intensity", "protocol": "HEK 293AD cells were lysed as described above, and the lysate was cleared by centrifugation. […] SDS was added to a final concentration of 1.2% (27.2 μL of a 10% stock), and denatured by heating to 80 °C for 5 minutes. After cooling to RT, 1125 μL 1X PBS was added to dilute the final SDS concentration to 0.2%. 50 μL streptavidin agarose slurry was added to each sample, followed by incubation at RT for 3 hours. After streptavidin enrichment, samples were washed vigorously (2×0.2% SDS, 3x PBS, 3x ddH2O). After the final wash, all supernatant was removed using a flat-bottom tip, and the resin was flash frozen and stored at −80 °C until workup for TMT labeling.\nTo remove rapigest, recovered supernatants were acidified with 10% TFA, incubated at 37 °C for 45 minutes, and centrifuged at 14,000 rpm for 15 minutes at 4 °C. Peptides were then desalted by C18, and dried by vacuum centrifugation. Dried peptides were reconstituted in 50 mM pH8.0 TEAB and labeled with TMT reagent at RT for 1 hour. TMT reactions were pooled and treated with hydroxylamine according to the manufacturer’s instructions. Peptide mixtures were then dried, reconstituted in 50 mM ammonium bicarbonate and desalted by SP3[53]. Eluted peptides were then analyzed by nanoflow LC-MS/MS as described[64] with a NanoAcquity UPLC system (Waters, Milford, MA) interfaced to a QExactive HF mass spectrometer (Thermofisher Scientific, San Jose, CA). TMT labeled peptides were injected onto a precolumn (4 cm POROS 10R2, Applied Biosystems, Framingham, MA), resolved on an analytical column (30 µm I.D. × 50 cm packed with 5 µm Monitor C18) and introduced to the mass spectrometer by ESI (spray voltage = 3.5 kV, flow rate ~30 nL/min). The mass spectrometer was operated in data dependent mode such that the 15 most abundant ions in each MS scan (m/z 300–2000, 120 K resolution, target = 3E6, lock mass for 445.120025 enabled) were subjected to MS/MS (m/z 100–2000, 30 K resolution, target = 1E5, max fill time = 100 ms). Dynamic exclusion was selected with a repeat count of 1 and an exclusion time of 30 seconds. MS/MS data was extracted to.mgf using mulitplierz scripts[54],[55] and searched against a forward-reverse human NCBI refseq database using Mascot version 2.6. Search parameters specified fixed carbamidomethylation of cysteine, fixed N-terminal and lysine TMT labelling, and variable oxidation (methionine). Additional multiplierz scripts were used to filter results to 1% FDR and derive protein-level aggregate reporter ion intensities using peptides mapping uniquely into the genome."}, "USP7 [1]": {"molecular_target": "T2, USP7 (Homo sapiens, UniProt Q93009)", "T2 sequence (Q93009 whole entry)": "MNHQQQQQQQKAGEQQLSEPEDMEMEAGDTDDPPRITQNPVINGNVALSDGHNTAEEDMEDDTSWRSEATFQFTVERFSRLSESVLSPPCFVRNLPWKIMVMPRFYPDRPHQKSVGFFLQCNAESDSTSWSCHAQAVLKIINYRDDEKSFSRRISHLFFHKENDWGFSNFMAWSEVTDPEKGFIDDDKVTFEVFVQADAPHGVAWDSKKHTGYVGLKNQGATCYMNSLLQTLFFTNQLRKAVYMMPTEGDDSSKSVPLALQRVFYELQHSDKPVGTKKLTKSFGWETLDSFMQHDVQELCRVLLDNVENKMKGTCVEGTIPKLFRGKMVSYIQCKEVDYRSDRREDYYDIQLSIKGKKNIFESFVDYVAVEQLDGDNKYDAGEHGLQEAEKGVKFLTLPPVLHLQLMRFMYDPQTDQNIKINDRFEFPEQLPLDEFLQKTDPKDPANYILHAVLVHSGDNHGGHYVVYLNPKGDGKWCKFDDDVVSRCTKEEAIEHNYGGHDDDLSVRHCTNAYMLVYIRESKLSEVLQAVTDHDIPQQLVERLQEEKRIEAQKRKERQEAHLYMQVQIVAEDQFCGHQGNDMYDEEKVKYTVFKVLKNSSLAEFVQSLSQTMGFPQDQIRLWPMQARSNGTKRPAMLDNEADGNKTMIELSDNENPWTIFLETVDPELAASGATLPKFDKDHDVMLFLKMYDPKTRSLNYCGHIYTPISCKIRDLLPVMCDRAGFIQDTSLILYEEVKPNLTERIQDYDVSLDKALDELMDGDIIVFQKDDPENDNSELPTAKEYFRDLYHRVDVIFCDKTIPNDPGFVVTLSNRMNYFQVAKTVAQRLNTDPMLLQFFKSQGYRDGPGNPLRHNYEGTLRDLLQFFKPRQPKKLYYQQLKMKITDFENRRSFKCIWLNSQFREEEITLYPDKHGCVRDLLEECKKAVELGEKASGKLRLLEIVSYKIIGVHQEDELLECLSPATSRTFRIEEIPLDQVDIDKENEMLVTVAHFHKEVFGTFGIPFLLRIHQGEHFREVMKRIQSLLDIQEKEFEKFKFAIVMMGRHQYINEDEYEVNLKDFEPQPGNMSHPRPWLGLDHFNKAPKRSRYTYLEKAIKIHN", "assay": "Live cell treatment and competitive ABPP with HA-Ub-VS", "format": "cell-based", "set-up": "endogenous in cells; host or cells: MCF7", "details": "live cell treatment, 6 hr; read-out: IC50, USP7 inhibition in cyto", "protocol": "HA-Ub-VS experiments were performed as previously described in Lamberto et al[29]. Briefly, target engagement lysis buffer (50 mM Tris pH 8.0, 150 mM NaCl, 5 mM MgCl2, 0.5 mM EDTA, 0.5% NP-40, 10% glycerol, 1 mM TCEP, protease and phosphatase inhibitors) was added to cell pellets on ice. Lysate was cleared by centrifugation and diluted to 1.67 mg/mL. Where indicated, 30 μL lysate was then incubated with inhibitors or DMSO for the indicated timepoints. 1 μM HA-Ub-VS was then added to the lysate and incubated at RT for the indicated time points. Labeling reactions were quenched with 4x LDS sample buffer (Thermo Fisher B0007) supplemented with 10% BME, vortexed vigorously, and heated to 95 C for 5 minutes. Samples were resolved by SDS-PAGE and analyzed by Western blot with the indicated antibodies."}, "USP7 [2]": {"molecular_target": "T2, USP7", "assay": "In vitro DUB profiling (Ubiquigent, Ub-Rho), USP7", "format": "biochemical", "details": "1 µM, 15-minute pre-treatment", "protocol": "Compounds were screened using the Ubiquigent Drug Profiler SPT system (www.ubiquigent.com/drug-discovery-services/dubprofiler/). Each of 41 purified DUBs was incubated with compound for 15 minutes, then ubiquitin rhodamine 110 (Ub-Rho) was added and percent inhibition determined based on fluorescence relative to a DMSO control."}, "[3]": {"details": "XL177A-DTB pulldown, HEK293AD lysate pre-treated 100nM XL177A"}, "[4]": {"details": "XL177A-DTB pulldown, HEK293AD lysate pre-treated 1uM XL177A"}, "[5]": {"details": "XL177A-DTB pulldown, HEK293AD lysate pre-treated 10uM XL177A"}, "[6]": {"details": "average of Run 1 and Run 2, 100nM XL177A"}, "[7]": {"details": "average of Run 1 and Run 2, 1uM XL177A"}, "[8]": {"details": "average of Run 1 and Run 2, 10uM XL177A"}}, "data": [{"smiles": "CN1CCN(CCC(=O)Nc2ccc3c(=O)n(CC4(O)CCN(C(=O)[C@@H](CCCNC(=O)c5ccc6c(Cl)c7c(nc6c5)CCCC7)Cc5ccccc5)CC4)cnc3c2)CC1", "note": "[XL177A]", "values": [{"measurement": "Run 1 100nM 1", "setting": "BZW2; [3]", "value": 6095061}, {"measurement": "Run 1 100nM 2", "setting": "BZW2; [3]", "value": 5618739}, {"measurement": "Run 1 100nM 3", "setting": "BZW2; [3]", "value": 5891848}, {"measurement": "Run 2 100nM 1", "setting": "BZW2; [3]", "value": 6367486}, {"measurement": "Run 2 100nM 2", "setting": "BZW2; [3]", "value": 5770311}, {"measurement": "Run 2 100nM 3", "setting": "BZW2; [3]", "value": 6244557}, {"measurement": "Run 1 1uM 1", "setting": "BZW2; [4]", "value": 5512643}, {"measurement": "Run 1 1uM 2", "setting": "BZW2; [4]", "value": 3810437}, {"measurement": "Run 1 1uM 3", "setting": "BZW2; [4]", "value": 5451627}, {"measurement": "Run 2 1uM 1", "setting": "BZW2; [4]", "value": 5833621}, {"measurement": "Run 2 1uM 2", "setting": "BZW2; [4]", "value": 3936167}, {"measurement": "Run 2 1uM 3", "setting": "BZW2; [4]", "value": 5735390}, {"measurement": "Run 1 10uM 1", "setting": "BZW2; [5]", "value": 4021260}, {"measurement": "Run 1 10uM 2", "setting": "BZW2; [5]", "value": 4066194}, {"measurement": "Run 2 10uM 1", "setting": "BZW2; [5]", "value": 4140296}, {"measurement": "Run 2 10uM 2", "setting": "BZW2; [5]", "value": 4394498}, {"measurement": "AVE 100nM 1", "setting": "BZW2; [6]", "value": 6231274}, {"measurement": "AVE 100nM 2", "setting": "BZW2; [6]", "value": 5694525}, {"measurement": "AVE 100nM 3", "setting": "BZW2; [6]", "value": 6068202}, {"measurement": "AVE 1uM 1", "setting": "BZW2; [7]", "value": 5673132}, {"measurement": "AVE 1uM 2", "setting": "BZW2; [7]", "value": 3873302}, {"measurement": "AVE 1uM 3", "setting": "BZW2; [7]", "value": 5593508}, {"measurement": "AVE 10uM 1", "setting": "BZW2; [8]", "value": 4080778}, {"measurement": "AVE 10uM 2", "setting": "BZW2; [8]", "value": 4230346}, {"measurement": "IC50", "setting": "USP7 [1]", "value": 39, "unit": "nM"}, {"measurement": "USP7 enzymatic activity", "setting": "USP7 [2]", "value": "completely inhibited"}]}]}
